Reference: ChEMBL document CHEMBL1201861, “Genomics of Drug Sensitity in Cancer screening data, Wellcome Trust Sanger Institute”

Columns and labels:
Assay in all cases: cells
KMOE-2 = type: functional, cell-based, Homo sapiens; details: Homo sapiens, KMOE-2;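 also: growth inhibition of human KMOE-2 cells, read out with a cell viability assay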
Description: SANGER: Inhibition of human KMOE-2 cell growth in a cell viability assay.

NCI-H1770 = type: functional, cell-based, Homo sapiens; details: Homo sapiens, NCI-H1770;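 also: growth inhibition of NCI-H1770 cells determined with a viability readout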
Description: SANGER: Inhibition of human NCI-H1770 cell growth in a cell viability assay.

MC116 = type: functional, cell-based, Homo sapiens; details: Homo sapiens, MC116;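 also: growth inhibition of MC116 cells, read out with a cell viability assay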
Description: SANGER: Inhibition of human MC116 cell growth in a cell viability assay.

SK-PN-DW = type: functional, cell-based, Homo sapiens; details: Homo sapiens, SK-PN-DW;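 also: growth inhibition measured with a viability assay on these cells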
Description: SANGER: Inhibition of human SK-PN-DW cell growth in a cell viability assay.

697 = type: functional, cell-based, Homo sapiens; details: Homo sapiens
Description: SANGER: Inhibition of human 697 cell growth in a cell viability assay.

HT = type: functional, cell-based, Homo sapiens; details: Homo sapiens, HT
Description: SANGER: Inhibition of human HT cell growth in a cell viability assay.

NCI-H1155 = type: functional, cell-based, Homo sapiens; details: Homo sapiens, NCI-H1155;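 also: cell growth inhibition measured by a viability assay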
Description: SANGER: Inhibition of human NCI-H1155 cell growth in a cell viability assay.

LB2518-MEL = type: functional, cell-based, Homo sapiens; details: Homo sapiens, LB2518-MEL;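 also: growth inhibition of human LB2518-MEL cells, measured with a cell viability assay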
Description: SANGER: Inhibition of human LB2518-MEL cell growth in a cell viability assay.

OS-RC-2 = type: functional, cell-based, Homo sapiens; details: Homo sapiens, OS-RC-2;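 also: growth inhibition of human OS-RC-2 cells, measured by a cell viability assay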
Description: SANGER: Inhibition of human OS-RC-2 cell growth in a cell viability assay.

SK-MEL-1 = type: functional, cell-based, Homo sapiens; details: Homo sapiens, SK-MEL-1;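 also: growth inhibition of human SK-MEL-1 cells, read out by a cell viability assay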
Description: SANGER: Inhibition of human SK-MEL-1 cell growth in a cell viability assay.

LXF-289 cell line = type: functional, cell-based, Homo sapiens; details: Homo sapiens, LXF-289
Description: SANGER: Inhibition of human LXF-289 cell growth in a cell viability assay.

BB65-RCC = type: functional, cell-based, Homo sapiens; details: Homo sapiens, BB65-RCC;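 also: growth inhibition of the cell line, measured with a cell viability assay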
Description: SANGER: Inhibition of human BB65-RCC cell growth in a cell viability assay.

SH-4 = type: functional, cell-based, Homo sapiens; details: Homo sapiens, SH-4;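 also: growth inhibition of SH-4 cells, read out with a cell viability assay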
Description: SANGER: Inhibition of human SH-4 cell growth in a cell viability assay.

SF-539 = type: functional, cell-based, Homo sapiens; details: Homo sapiens, SF-539;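 also: Read-out is a cell viability assay, with IC50 reflecting inhibition of cell growth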
Description: SANGER: Inhibition of human SF539 cell growth in a cell viability assay.

A498 = type: functional, cell-based, Homo sapiens; details: Homo sapiens, A498;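 also: growth inhibition of human A498 cells, read out with a cell viability assay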
Description: SANGER: Inhibition of human A498 cell growth in a cell viability assay.

SNU-C2B = type: functional, cell-based, Homo sapiens; details: Homo sapiens, SNU-C2B;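 also: cell viability readout used to measure compound-driven suppression of SNU-C2B cell proliferation, IC50 marking half-maximal growth inhibition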
Description: SANGER: Inhibition of human SNU-C2B cell growth in a cell viability assay.

MV4-11 = type: functional, cell-based, Homo sapiens, MV-4-11; details: Homo sapiens, MV4-11;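 also: cell viability readout measuring growth inhibition of human MV-4-11 cells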
Description: SANGER: Inhibition of human MV-4-11 cell growth in a cell viability assay.

HAL-01 = type: functional, cell-based, Homo sapiens; details: Homo sapiens, HAL-01;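 also: growth inhibition of human HAL-01 cells, read out with a cell viability assay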
Description: SANGER: Inhibition of human HAL-01 cell growth in a cell viability assay.

GT3TKB = type: functional, cell-based, Homo sapiens; details: Homo sapiens, GT3TKB;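 also: growth inhibition of the cell line, read out with a cell viability assay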
Description: SANGER: Inhibition of human GT3TKB cell growth in a cell viability assay.

GR-ST = type: functional, cell-based, Homo sapiens; details: Homo sapiens, GR-ST
Description: SANGER: Inhibition of human GR-ST cell growth in a cell viability assay.

U-266 = type: functional, cell-based, Homo sapiens; details: Homo sapiens, U-266
Description: SANGER: Inhibition of human U-266 cell growth in a cell viability assay.

EM-2 = type: functional, cell-based, Homo sapiens; details: Homo sapiens, EM-2;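 also: growth inhibition of EM-2 cells, read out with a cell viability assay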
Description: SANGER: Inhibition of human EM-2 cell growth in a cell viability assay.

SW 954 = type: functional, cell-based, Homo sapiens; details: Homo sapiens, SW 954;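 also: growth inhibition of SW954 human cancer cells, read out as cell viability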
Description: SANGER: Inhibition of human SW954 cell growth in a cell viability assay.

LB1047-RCC = type: functional, cell-based, Homo sapiens; details: Homo sapiens, LB1047-RCC;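 also: inhibition of cell growth, determined with a cell viability assay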
Description: SANGER: Inhibition of human LB1047-RCC cell growth in a cell viability assay.

SK-NEP-1 = type: functional, cell-based, Homo sapiens; details: Homo sapiens, SK-NEP-1;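 also: growth inhibition of human SK-NEP-1 cells, read out by a cell viability assay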
Description: SANGER: Inhibition of human SK-NEP-1 cell growth in a cell viability assay.

LU-134-A = type: functional, cell-based, Homo sapiens; details: Homo sapiens, LU-134-A
Description: SANGER: Inhibition of human LU-134-A cell growth in a cell viability assay.

TE-1 = type: functional, cell-based, Homo sapiens; details: Homo sapiens, TE-1;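 also: growth inhibition of the human TE-1 cell line, read out with a cell viability assay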
Description: SANGER: Inhibition of human TE-1 cell growth in a cell viability assay.

Ramos-2G6-4C10 = type: functional, cell-based, Homo sapiens; details: Homo sapiens, Ramos-2G6-4C10;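 also: growth inhibition of the cell line, measured by a cell viability read-out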
Description: SANGER: Inhibition of human Ramos-2G6-4C10 cell growth in a cell viability assay.

D-502MG = type: functional, cell-based, Homo sapiens; details: Homo sapiens, D-502MG
Description: SANGER: Inhibition of human D-502MG cell growth in a cell viability assay.

LB2241-RCC = type: functional, cell-based, Homo sapiens; details: Homo sapiens, LB2241-RCC;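 also: cell viability assay measuring how strongly the cultured human renal carcinoma line is prevented from growing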
Description: SANGER: Inhibition of human LB2241-RCC cell growth in a cell viability assay.

RH-1 = type: functional, cell-based, Homo sapiens; details: Homo sapiens, RH-1;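 also: growth inhibition of human RH-1 cells, read out with a cell viability assay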
Description: SANGER: Inhibition of human RH-1 cell growth in a cell viability assay.

BE-13 = type: functional, cell-based, Homo sapiens; details: Homo sapiens, BE-13;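 also: growth inhibition of human BE-13 cells, measured with a cell viability assay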
Description: SANGER: Inhibition of human BE-13 cell growth in a cell viability assay.

MLMA = type: functional, cell-based, Homo sapiens; details: Homo sapiens, MLMA;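 also: growth inhibition of MLMA cells (human), determined through a cell viability readout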
Description: SANGER: Inhibition of human MLMA cell growth in a cell viability assay.

EW-3 = type: functional, cell-based, Homo sapiens; details: Homo sapiens, EW-3;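 also: cell viability assay read-out, IC50 reflects inhibition of growth of the EW-3 cells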
Description: SANGER: Inhibition of human EW-3 cell growth in a cell viability assay.

MOLT-4 = type: functional, cell-based, Homo sapiens; details: Homo sapiens, MOLT-4;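 also: growth inhibition of MOLT-4 cells, determined with a cell viability readout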
Description: SANGER: Inhibition of human MOLT-4 cell growth in a cell viability assay.

Mo = type: functional, cell-based, Homo sapiens; details: Homo sapiens, Mo
Description: SANGER: Inhibition of human Mo-T cell growth in a cell viability assay.

MEG-01 = type: functional, cell-based, Homo sapiens; details: Homo sapiens, MEG-01;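 also: growth inhibition of MEG-01 cells, read out by a cell viability assay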
Description: SANGER: Inhibition of human MEG-01 cell growth in a cell viability assay.

CAS-1 = type: functional, cell-based, Homo sapiens; details: Homo sapiens, CAS-1;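 also: growth inhibition of CAS-1 cells, measured with a cell viability assay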
Description: SANGER: Inhibition of human CAS-1 cell growth in a cell viability assay.

RXF 393 = type: functional, cell-based, Homo sapiens; details: Homo sapiens, RXF 393;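 also: growth inhibition of human RXF 393 cells, read out with a cell viability assay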
Description: SANGER: Inhibition of human RXF393 cell growth in a cell viability assay.

DMS-114 = type: functional, cell-based, Homo sapiens; details: Homo sapiens, DMS-114
HCE-T = type: functional, cell-based, Homo sapiens; details: Homo sapiens, HCE-T;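 also: cell viability assay read-out, reporting inhibition of HCE-T cell growth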
Description: SANGER: Inhibition of human HCE-T cell growth in a cell viability assay.

LS-1034 = type: functional, cell-based, Homo sapiens; details: Homo sapiens, LS-1034
Description: SANGER: Inhibition of human LS-1034 cell growth in a cell viability assay.

LB996-RCC = type: functional, cell-based, Homo sapiens; details: Homo sapiens, LB996-RCC
Description: SANGER: Inhibition of human LB996-RCC cell growth in a cell viability assay.

OCI-AML2 = type: functional, cell-based, Homo sapiens; details: Homo sapiens, OCI-AML2;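 also: growth inhibition of OCI-AML2 cells, read out with a cell viability assay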
Description: SANGER: Inhibition of human OCI-AML2 cell growth in a cell viability assay.

A4-Fuk = type: functional, cell-based, Homo sapiens; details: Homo sapiens, A4-Fuk;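 also: growth inhibition of A4-Fuk cells, read out by a cell viability assay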
Description: SANGER: Inhibition of human A4-Fuk cell growth in a cell viability assay.

A704 = type: functional, cell-based, Homo sapiens; details: Homo sapiens, A704;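 also: growth inhibition of human A704 cells, read out with a cell viability assay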
Description: SANGER: Inhibition of human A704 cell growth in a cell viability assay.

NCI-H23 = type: functional, cell-based, Homo sapiens; details: Homo sapiens, NCI-H23;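 also: cell viability assay measuring growth inhibition of NCI-H23 cells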
Description: SANGER: Inhibition of human NCI-H23 cell growth in a cell viability assay.

HuTu80 = type: functional, cell-based, Homo sapiens, HUTU-80; details: Homo sapiens, HuTu80;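 also: growth inhibition of HuTu80 human cells, determined with a cell viability readout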
Description: SANGER: Inhibition of human HUTU-80 cell growth in a cell viability assay.

ES3 = type: functional, cell-based, Homo sapiens; details: Homo sapiens, ES3;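 also: growth inhibition of ES3 cells, read out with a cell viability assay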
Description: SANGER: Inhibition of human ES3 cell growth in a cell viability assay.

SMILES: N#Cc1c(O)c2c(-c3ccc(-c4ccccc4O)cc3)csc2[nH]c1=O
- IC50 (KMOE-2): 0.397 µM
- IC50 (NCI-H1770): 0.109 µM
- IC50 (MC116): 0.1 µM
- IC50 (SK-PN-DW): > 1.02 µM
- IC50 697: > 1.02 µM
- IC50 (HT): 0.335 µM
- IC50 (NCI-H1155): > 1.02 µM
- IC50 (LB2518-MEL): > 1.02 µM
- IC50 (OS-RC-2): > 1.02 µM
- IC50 (SK-MEL-1): > 1.02 µM
- IC50 (LXF-289 cell line): > 1.02 µM
- IC50 (BB65-RCC): > 1.02 µM
- IC50 (SH-4): > 1.02 µM
- IC50 (SF-539): > 1.02 µM
- IC50 (A498): > 1.02 µM
- IC50 (SNU-C2B): > 1.02 µM
- IC50 (MV4-11): 0.0227 µM
- IC50 (HAL-01): > 1.02 µM
- IC50 (GT3TKB): > 1.02 µM
- IC50 (GR-ST): 0.218 µM
- IC50 (U-266): 0.405 µM
- IC50 (EM-2): 0.344 µM
- IC50 (SW 954): > 1.02 µM
- IC50 (LB1047-RCC): > 1.02 µM
- IC50 (SK-NEP-1): 0.185 µM
- IC50 (LU-134-A): 0.231 µM
- IC50 (TE-1): > 1.02 µM
- IC50 (Ramos-2G6-4C10): 0.172 µM
- IC50 (D-502MG): > 1.02 µM
- IC50 (LB2241-RCC): > 1.02 µM
- IC50 (RH-1): > 1.02 µM
- IC50 (BE-13): > 1.02 µM
- IC50 (MLMA): 0.234 µM
- IC50 (EW-3): > 1.02 µM
- IC50 (MOLT-4): 0.114 µM
- IC50 (Mo): > 1.02 µM
- IC50 (MEG-01): 0.269 µM
- IC50 (CAS-1): 0.193 µM
- IC50 (RXF 393): > 1.02 µM
- IC50 (DMS-114): > 1.02 µM
- IC50 (HCE-T): > 1.02 µM
- IC50 (LS-1034): > 1.02 µM
- IC50 (LB996-RCC): > 1.02 µM
- IC50 (OCI-AML2): 0.0572 µM
- IC50 (A4-Fuk): > 1.02 µM
- IC50 (A704): > 1.02 µM
- IC50 (NCI-H23): > 1.02 µM
- IC50 (HuTu80): > 1.02 µM
- IC50 (ES3): > 1.02 µM

SMILES: COc1cc2ncn(-c3cc(OCc4ccccc4S(C)(=O)=O)c(C#N)s3)c2cc1OC [GSK-319347A]
- IC50 (KMOE-2): > 5 µM
- IC50 (NCI-H1770): > 5 µM
- IC50 (MC116): > 5 µM
- IC50 (SK-PN-DW): > 5 µM
- IC50 697: > 5 µM
- IC50 (HT): > 5 µM
- IC50 (NCI-H1155): > 5 µM
- IC50 (LB2518-MEL): > 5 µM
- IC50 (OS-RC-2): > 5 µM
- IC50 (SK-MEL-1): > 5 µM
- IC50 (LXF-289 cell line): > 5 µM
- IC50 (BB65-RCC): > 5 µM
- IC50 (SH-4): > 5 µM
- IC50 (SF-539): > 5 µM
- IC50 (A498): > 5 µM
- IC50 (MV4-11): > 5 µM
- IC50 (HAL-01): > 5 µM
- IC50 (GT3TKB): > 5 µM
- IC50 (GR-ST): > 5 µM
- IC50 (U-266): > 5 µM
- IC50 (EM-2): > 5 µM
- IC50 (SW 954): > 5 µM
- IC50 (LB1047-RCC): > 5 µM
- IC50 (SK-NEP-1): > 5 µM
- IC50 (LU-134-A): > 5 µM
- IC50 (TE-1): > 5 µM
- IC50 (Ramos-2G6-4C10): > 5 µM
- IC50 (D-502MG): > 5 µM
- IC50 (LB2241-RCC): > 5 µM
- IC50 (RH-1): > 5 µM
- IC50 (BE-13): > 5 µM
- IC50 (MLMA): > 5 µM
- IC50 (EW-3): > 5 µM
- IC50 (MOLT-4): > 5 µM
- IC50 (Mo): > 5 µM
- IC50 (MEG-01): > 5 µM
- IC50 (CAS-1): > 5 µM
- IC50 (RXF 393): > 5 µM
- IC50 (DMS-114): > 5 µM
- IC50 (HCE-T): > 5 µM
- IC50 (LS-1034): > 5 µM
- IC50 (LB996-RCC): > 5 µM
- IC50 (OCI-AML2): > 5 µM
- IC50 (A4-Fuk): > 5 µM
- IC50 (NCI-H23): > 5 µM
- IC50 (HuTu80): > 5 µM
- IC50 (ES3): > 5 µM

SMILES: CC[C@H](CO)Nc1nc(NCc2ccccc2)c2ncn(C(C)C)c2n1 [SELICICLIB]
- IC50 (KMOE-2): > 16 µM
- IC50 (NCI-H1770): > 16 µM
- IC50 (MC116): > 16 µM
- IC50 (SK-PN-DW): > 16 µM
- IC50 697: 12.6 µM
- IC50 (HT): > 16 µM
- IC50 (NCI-H1155): > 16 µM
- IC50 (LB2518-MEL): > 16 µM
- IC50 (OS-RC-2): 15.8 µM
- IC50 (SK-MEL-1): > 16 µM
- IC50 (LXF-289 cell line): > 16 µM
- IC50 (BB65-RCC): 9.97 µM
- IC50 (SH-4): > 16 µM
- IC50 (SF-539): > 16 µM
- IC50 (MV4-11): > 16 µM
- IC50 (HAL-01): > 16 µM
- IC50 (GT3TKB): > 16 µM
- IC50 (GR-ST): > 16 µM
- IC50 (U-266): > 16 µM
- IC50 (EM-2): > 16 µM
- IC50 (SW 954): > 16 µM
- IC50 (LB1047-RCC): > 16 µM
- IC50 (SK-NEP-1): > 16 µM
- IC50 (LU-134-A): > 16 µM
- IC50 (TE-1): > 16 µM
- IC50 (Ramos-2G6-4C10): > 16 µM
- IC50 (D-502MG): > 16 µM
- IC50 (LB2241-RCC): > 16 µM
- IC50 (RH-1): > 16 µM
- IC50 (BE-13): > 16 µM
- IC50 (MLMA): > 16 µM
- IC50 (EW-3): > 16 µM
- IC50 (MOLT-4): > 16 µM
- IC50 (Mo): > 16 µM
- IC50 (MEG-01): 13.8 µM
- IC50 (CAS-1): > 16 µM
- IC50 (RXF 393): > 16 µM
- IC50 (DMS-114): > 16 µM
- IC50 (HCE-T): > 16 µM
- IC50 (LS-1034): > 16 µM
- IC50 (LB996-RCC): > 16 µM
- IC50 (OCI-AML2): 15.6 µM
- IC50 (A4-Fuk): > 16 µM
- IC50 (NCI-H23): > 16 µM
- IC50 (HuTu80): > 16 µM
- IC50 (ES3): > 16 µM
